# Assay results: publication PMC3411725 (PLoS ONE, 2012)
# T1: AroAE.coli (Escherichia coli, UniProt P0A6D3)
# T1 construct: gene aroA; overexpressed and purified as P1 (pET-28a, His-tag, E. coli BL21(DE3), HisTrap)
# T1 sequence (P0A6D3 1-427): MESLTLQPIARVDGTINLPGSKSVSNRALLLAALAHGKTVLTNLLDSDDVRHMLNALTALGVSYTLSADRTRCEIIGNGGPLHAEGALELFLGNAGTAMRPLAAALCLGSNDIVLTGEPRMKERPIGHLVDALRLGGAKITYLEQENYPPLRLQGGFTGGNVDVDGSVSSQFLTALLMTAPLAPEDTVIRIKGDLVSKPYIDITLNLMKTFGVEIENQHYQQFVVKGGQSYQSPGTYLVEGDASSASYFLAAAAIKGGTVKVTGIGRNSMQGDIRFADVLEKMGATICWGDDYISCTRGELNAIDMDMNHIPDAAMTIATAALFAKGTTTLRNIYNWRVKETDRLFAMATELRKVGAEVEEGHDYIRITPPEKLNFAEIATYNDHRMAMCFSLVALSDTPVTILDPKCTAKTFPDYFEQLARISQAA
# Key:
# AroAE.coli [1] = biological target: T2, AroAE.coli (Escherichia coli, UniProt P0A6D3, G96A); test: biochemical
# T2 construct: gene aroA
# AroAE.coli [2] = biological target: T2, AroAE.coli; test: biochemical; remark: listed apart in the source
# AroAE.coli [3] = biological target: T1, AroAE.coli; test: malachite green phosphate release assay, dose-response fit; format: biochemical; conditions: read-out: IC50 [glyphosate] ^e
# AroAE.coli [4] = biological target: T1, AroAE.coli; test: malachite green phosphate release assay, Lineweaver-Burk; format: biochemical; conditions: read-out: K i [glyphosate] ^d
# [5] = substrate: C=C(OP(=O)(O)O)C(=O)O; test: as above; format: biochemical, Escherichia coli; conditions: 1 mM S3P, 50 mM HEPES pH 7.0, 28°C
molecule,measurement,setting,value
O=C(O)CNCP(=O)(O)O [glyphosate],IC50,AroAE.coli [1],220 ± 20 µM
same,Ki,AroAE.coli [2],219.3 ± 1.9 µM
same,IC50,AroAE.coli [3],50 ± 10 µM
same,Ki,AroAE.coli [4],1.4 ± 0.1 µM
"AroAE.coli (Escherichia coli K-12) (protein, overexpressed and purified as P1 (pET-28a, His-tag, E. coli BL21(DE3), HisTrap)) MESLTLQPIARVDGTINLPGSKSVSNRALLLAALAHGKTVLTNLLDSDDVRHMLNALTALGVSYTLSADRTRCEIIGNGGPLHAEGALELFLGNAGTAMRPLAAALCLGSNDIVLTGEPRMKERPIGHLVDALRLGGAKITYLEQENYPPLRLQGGFTGGNVDVDGSVSSQFLTALLMTAPLAPEDTVIRIKGDLVSKPYIDITLNLMKTFGVEIENQHYQQFVVKGGQSYQSPGTYLVEGDASSASYFLAAAAIKGGTVKVTGIGRNSMQGDIRFADVLEKMGATICWGDDYISCTRGELNAIDMDMNHIPDAAMTIATAALFAKGTTTLRNIYNWRVKETDRLFAMATELRKVGAEVEEGHDYIRITPPEKLNFAEIATYNDHRMAMCFSLVALSDTPVTILDPKCTAKTFPDYFEQLARISQAA",Km,[5],65.8 ± 5.6 µM
